Assay results reported in patent US20220378786A1, “METHODS OF DEFINING FUNCTIONAL CHANGE AND SLOWING PROGRESSION IN CHRONIC LIVER DISEASE” (priority 2021, published 2022).

Tested on: hepatic function and portal-systemic shunting in subjects with CLD
Assay: HepQuant SHUNT test (DSI and SHUNT %) relative to concomitant drug therapy in the SHUNT-V clinical study
Type: in vivo, human
Conditions: for Coefficient (Δ DSI score): multi-variable regression analysis of prescribed medications, Base DSI 27.0682; for ΔDSI: univariable regression analysis, 270 SHUNT-V subjects with CLD, on drug vs not on drug, lower DSI = better hepatic function
Source text: For example, a HepQuant® cholate liver function test (HepQuant, LLC) can be used to determine the presence and severity of liver diseases. A HepQuant® test can be a HepQuant® DSI test, HepQuant® SHUNT test or a HepQuant® STAT test. […] The term “SHUNT test” refers to a previously disclosed QLFT (quantitative liver function test) used as a comprehensive assessment of hepatic blood flow and liver function. The SHUNT test may be used to determine plasma clearance of orally and intravenously administered distinguishable cholic acids in subjects with and without chronic liver disease. SHUNT fraction or percent quantifies the spillover of the PO d4-cholate into the systemic circulation from the ratio of the clearance of the intravenously administered 13C-cholate to the clearance of the orally administered d4-cholate. In the SHUNT test, at least 5 blood samples are analyzed which have been drawn from a patient at intervals over a period of about 90 minutes after oral and intravenous administration of differentiable cholates. The SHUNT test is disclosed in Everson et al., U.S. Pat. […] The “SHUNT test value” refers to a number (in %). The term “SHUNT %” represents a quantitative measurement of portal-systemic shunting. SHUNT % is a measurement of the percentage of spillover of the orally administered d4-cholate. The first-pass hepatic elimination of cholate in percent of orally administered cholate is defined as (100%—SHUNT). Analysis of samples for stable isotopically labeled cholates is performed by, e.g., GC-MS, following sample derivitization, or LC-MS, without sample derivitization, or LC-MS/MS, or MS/MS. The ratio of the AUCs of orally to intravenously administered cholic acid, corrected for administered doses, defines cholate shunt. The cholate shunt can be calculated using the formula: AUCoral/AUCiv×Doseiv/Doseoral×100%, wherein AUCoral is the area under the curve of the serum concentrations of the orally adminstered cholic acid and AUCiv is the area under the curve of the intravenously administered cholic acid. The SHUNT test allows measurement of first-pass hepatic elimination of bile acids from the portal circulation. The term “DSI test” refers to a cholate Disease Severity Index test which is derived from one or more liver function test results based on hepatic blood flow. The DSI score is a function of the sum of cholate clearances from systemic and portal circulations adjusted to disease severity ranging from healthy subjects to end stage liver disease. DSI is a score without units representing a quantitative measurement of liver function. A disease severity index (DSI) value may be obtained in a patient by a method comprising (a) obtaining one or more liver function test values in a patient having or at risk of a chronic liver disease, wherein the one or more liver function test values are obtained from one or more liver function tests selected from the group consisting of SHUNT, portal hepatic filtration rate (portal HFR), and systemic hepatic filtration rate (systemic HFR); and (b) employing a disease severity index equation (DSI equation) to obtain a DSI value in the patient, wherein the DSI equation comprises one or more terms and a constant to obtain the DSI value, wherein at least one term of the DSI equation independently represents a liver function test value in the patient, or a mathematically transformed liver function test value in the patient from step; and the at least one term of the DSI equation is multiplied by a coefficient specific to the liver function test. DSI is an index, or score, that encompasses the cholate clearances from both systemic and portal circulations. DSI has a range from 0 (healthy) to 50 (severe end-stage disease) and is calculated from both HFRs. […] DSI test methods and equations are disclosed in U.S. Pat. Nos. 9,091,701, 9,759,731, 10,520,517, each of which is incorporated herein by reference in its entirety. Additional DSI equations have been developed and are provided herein.

[1] = ON-OFF drug, subset of 130 subjects taking anti-diabetic drug therapies (Table 6, FIG. 18)
[2] = multi-variable regression with statins, metformin, diabetes diagnosis and NASH diagnosis

## CN(C)C(=N)N=C(N)N [Metformin, metformin]
[1]
  mean difference in DSI: −2.4
  mean difference in SHUNT: −7.4%
  Coefficient (Δ DSI score): −2.2637
  ΔDSI: −4.1777
[2]
  Decline in DSI: −2.4337
  Decline in SHUNT %: −5.9%
multi-variable regression, Base DSI 27.0682 plus coefficients, cumulative down the table (metformin line includes the statin coefficient)
  Resultant DSI: 21.55
multi-variable regression, relative to Base DSI 27.0682, cumulative down the table (metformin line includes statins)
  % Reduction in DSI: −20.4%

## CCc1ccc(CCOc2ccc(CC3SC(=O)NC3=O)cc2)nc1 (centres unmarked) [Pioglitazone]
  Coefficient (Δ DSI score): 0.2725
  ΔDSI: −2.4995

## Insulin: insulin, anti-diabetic drug therapy
  Coefficient (Δ DSI score): −0.7947
  ΔDSI: −2.746

## Vitamin E
  Coefficient (Δ DSI score): −1.6505
  ΔDSI: −2.0475
